# Where two headings read alike, the source gives them in different places.
# Experiments:
# [1] = system: α or β adrenergic, muscarinic, histaminergic, and dopaminergic receptors; conditions: cited from earlier work
# NMDA = conditions: cited from earlier work
# [2] = system: uptake of norepinephrine (NE), serotonin (5-HT) and dopamine; conditions: cited from earlier work
# δ-opioid = δ-opioid (Homo sapiens, UniProt P41143); conditions: read-out: Binding Constant Ki, δ-opioid; cited from earlier work
# Chain of δ-opioid (P41143 whole entry): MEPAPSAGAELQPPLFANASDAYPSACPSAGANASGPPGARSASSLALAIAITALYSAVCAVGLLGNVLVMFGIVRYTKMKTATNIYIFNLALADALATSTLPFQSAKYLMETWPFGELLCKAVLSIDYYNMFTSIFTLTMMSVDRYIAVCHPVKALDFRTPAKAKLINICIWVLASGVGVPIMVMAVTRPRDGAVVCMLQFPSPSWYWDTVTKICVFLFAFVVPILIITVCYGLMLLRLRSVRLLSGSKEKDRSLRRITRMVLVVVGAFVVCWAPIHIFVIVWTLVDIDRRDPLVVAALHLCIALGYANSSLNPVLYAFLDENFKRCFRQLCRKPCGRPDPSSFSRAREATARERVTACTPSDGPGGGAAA
# κ-opioid = κ-opioid (Homo sapiens, UniProt P41145); conditions: read-out: Binding Constant Ki, κ-opioid; cited from earlier work
# Chain of κ-opioid (P41145 whole entry): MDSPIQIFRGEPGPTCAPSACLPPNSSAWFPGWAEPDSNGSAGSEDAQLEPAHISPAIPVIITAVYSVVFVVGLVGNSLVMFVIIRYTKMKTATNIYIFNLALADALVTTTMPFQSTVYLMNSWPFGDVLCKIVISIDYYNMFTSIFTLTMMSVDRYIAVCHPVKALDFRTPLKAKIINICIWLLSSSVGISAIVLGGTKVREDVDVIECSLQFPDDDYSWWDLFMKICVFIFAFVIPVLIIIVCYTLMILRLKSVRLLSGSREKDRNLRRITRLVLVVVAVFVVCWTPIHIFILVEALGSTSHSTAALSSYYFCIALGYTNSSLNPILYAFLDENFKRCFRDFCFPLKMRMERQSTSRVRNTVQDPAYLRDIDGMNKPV
# NE reuptake = NE reuptake (Homo sapiens, UniProt P23975)
# Chain of NE reuptake (P23975 whole entry): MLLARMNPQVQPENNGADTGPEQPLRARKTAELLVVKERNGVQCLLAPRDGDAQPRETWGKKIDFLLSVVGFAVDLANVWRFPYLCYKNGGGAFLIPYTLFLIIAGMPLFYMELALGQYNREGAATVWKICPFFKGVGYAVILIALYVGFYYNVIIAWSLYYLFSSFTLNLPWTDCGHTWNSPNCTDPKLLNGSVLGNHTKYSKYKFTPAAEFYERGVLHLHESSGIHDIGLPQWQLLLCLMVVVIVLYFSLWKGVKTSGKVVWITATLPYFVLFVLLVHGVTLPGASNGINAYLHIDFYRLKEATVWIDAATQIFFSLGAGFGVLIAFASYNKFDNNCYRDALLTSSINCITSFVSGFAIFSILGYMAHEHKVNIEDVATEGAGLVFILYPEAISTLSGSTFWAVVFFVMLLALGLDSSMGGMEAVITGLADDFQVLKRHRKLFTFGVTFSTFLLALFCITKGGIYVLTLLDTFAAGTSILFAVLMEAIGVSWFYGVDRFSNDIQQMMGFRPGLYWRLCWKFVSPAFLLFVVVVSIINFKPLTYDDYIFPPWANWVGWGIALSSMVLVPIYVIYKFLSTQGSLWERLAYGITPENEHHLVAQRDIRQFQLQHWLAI
# 5-HT reuptake = 5-HT reuptake (Homo sapiens, UniProt P31645); conditions: read-out: Binding Constant Ki, 5-HT, cited from earlier work
# Chain of 5-HT reuptake (P31645 whole entry): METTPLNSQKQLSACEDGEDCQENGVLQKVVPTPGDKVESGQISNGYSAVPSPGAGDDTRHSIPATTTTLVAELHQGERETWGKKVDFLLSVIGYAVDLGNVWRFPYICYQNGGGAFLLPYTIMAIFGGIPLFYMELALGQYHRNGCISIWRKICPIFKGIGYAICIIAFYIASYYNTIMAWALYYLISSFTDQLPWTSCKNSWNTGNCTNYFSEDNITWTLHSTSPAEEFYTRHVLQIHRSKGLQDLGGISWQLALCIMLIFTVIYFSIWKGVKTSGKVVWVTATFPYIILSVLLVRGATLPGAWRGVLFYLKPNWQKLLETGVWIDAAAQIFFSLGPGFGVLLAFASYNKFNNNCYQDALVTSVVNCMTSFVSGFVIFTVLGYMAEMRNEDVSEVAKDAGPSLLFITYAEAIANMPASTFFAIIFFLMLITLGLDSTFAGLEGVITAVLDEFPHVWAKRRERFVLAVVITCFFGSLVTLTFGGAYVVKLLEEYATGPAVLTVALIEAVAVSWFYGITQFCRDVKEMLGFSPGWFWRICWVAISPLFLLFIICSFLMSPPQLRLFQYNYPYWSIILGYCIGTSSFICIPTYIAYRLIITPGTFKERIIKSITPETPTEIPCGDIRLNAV
# [3] = system: chronic sciatic nerve constriction injury; conditions: chronic sciatic nerve constriction injury in rats; cited from earlier work
# Sigma = conditions: read-out: Binding Constant Ki, Sigma; cited from earlier work
# μ-opioid = μ-opioid (Homo sapiens, UniProt P35372); conditions: read-out: Binding Constant Ki, μ-opioid; cited from earlier work
# Chain of μ-opioid (P35372 whole entry): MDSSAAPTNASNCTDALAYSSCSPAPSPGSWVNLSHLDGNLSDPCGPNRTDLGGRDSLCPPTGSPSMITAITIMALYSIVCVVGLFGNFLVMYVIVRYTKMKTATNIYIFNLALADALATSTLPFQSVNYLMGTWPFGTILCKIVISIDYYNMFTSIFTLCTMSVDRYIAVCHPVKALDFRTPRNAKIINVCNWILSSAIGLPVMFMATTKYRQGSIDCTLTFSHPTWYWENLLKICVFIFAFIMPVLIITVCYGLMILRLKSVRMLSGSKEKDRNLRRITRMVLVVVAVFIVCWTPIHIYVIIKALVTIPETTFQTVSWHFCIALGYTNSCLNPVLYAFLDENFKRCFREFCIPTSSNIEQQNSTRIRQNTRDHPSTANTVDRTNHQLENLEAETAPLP
# [4] = system: transient K^+ channels in hippocampal neurons; conditions: read-out: IC50, inhibition of transient K+ channels; cited from earlier work
# [5] = system: patients with neuropathic pain associated with diabetic peripheral neuropathy; conditions: diabetic peripheral neuropathy trials; cited from earlier work
# [6] = system: patients with fibromyalgia; conditions: fibromyalgia trials, cited from earlier work
# patients, pain score = conditions: cited from earlier work
# [7] = in vivo, po; cited from earlier work
# [8] = system: patients with diabetic neuropathy and fibromyalgia; test: Pain relief in diabetic neuropathy and fibromyalgia patients; conditions: 400 mg per day, alone
# [9] = system: cellular uptake of dopamine, noradrenaline, or serotonin; conditions: cited from earlier work
# [10] = cited from earlier work
# α2δ = conditions: read-out: α2δ Binding; cited from earlier work
# [11] = system: patients with postherpetic neuralgia or painful diabetic neuropathy; conditions: oral, cited from earlier work
# postoperative patients = conditions: intravenous; 30-mg/kg bolus, 10 mg/kg/h infusion for 48 hours; cited from earlier work
# [12] = system: persons undergoing third molar surgery; conditions: cited from earlier work
# [13] = read-out: Binding Constant Ki, NMDA
# [14] = read-out: Binding Constant Ki, NE; reuptake inhibition; cited from earlier work
# [15] = reuptake inhibition; read-out: Binding Constant Ki, NE; cited from earlier work
compound,measurement,setting,value
CCN(CC)C(=O)C1(c2ccccc2)CC1CN (centres unmarked) [Milnacipran],"affinity for α or β adrenergic, muscarinic, histaminergic, and dopaminergic receptors",[1],no affinity
same,Ki,NMDA; [13],6300 nM
same,uptake of dopamine,[2],does not affect
CN1CC[C@]23CCCC[C@H]2[C@H]1Cc1ccc(O)cc13 [Levorphanol],Ki,δ-opioid,3.61 nM
same,Ki,κ-opioid,4.2 nM
same,Ki,NE reuptake; [14],1210 nM
same,Ki,5-HT reuptake,86.3 nM
CN1CC[C@@]23CCCC[C@@H]2[C@@H]1Cc1ccc(O)cc13 [Dextrorphan],Ki,δ-opioid,34700 nM
same,Ki,κ-opioid,5950 nM
same,Ki,NE reuptake; [14],340 nM
same,Ki,5-HT reuptake; reuptake inhibition,401 nM
"COc1ccc(C(CN(C)C)C2(O)CCCCC2)cc1 (racemic) [Venlafaxine, (R/S)-1-[2-(dimethylamino)-1-(4-methoxyphenyl)ethyl]cyclohexanol]",reversing chronic neuropathic pain secondary to thermal hyperalgesia; hyperalgesia of neuropathic pain,[3],effective
"COc1ccc2c(c1)[C@@]13CCCC[C@H]1[C@@H](C2)N(C)CC3 [Dextromethorphan, (+)-3-methoxy-N-methylmorphinan]",Ki,Sigma,365 nM
same,Ki,δ-opioid,11500 nM
same,Ki,NMDA; [13],2910 nM
same,Ki,μ-opioid,1280 nM
CN(C)CCCN1c2ccccc2CCc2ccccc21 [imipramine],IC50,[4],~6000 nM
CC(C)C[C@H](CN)CC(=O)O [pregabalin],discontinuation due to dizziness,[5],3%
same,discontinuation due to somnolence,[5],2%
same,patients discontinued prematurely due to adverse reactions,[5],9%
same,"withdrawal due to asthenia, confusion, and peripheral edema, each",[5],approximately 1%
same,patients discontinued prematurely due to adverse reactions,[6]; 150-600 mg/day,19%
same,discontinuation due to dizziness,[6],6%
same,discontinuation due to somnolence,[6],3%
same,"withdrawal due to fatigue, headache, balance disorder, and weight increased, each",[6],approximately 1%
same,endpoint mean pain score (proportion with at least 50% reduction in pain score increased),"patients, pain score; 8-week study, 50 and 100 mg three times a day vs placebo",statistically significantly improved
same,endpoint mean pain score (proportion with at least 50% reduction in pain score increased),"patients, pain score; 8-week study, 100 or 200 mg three times a day vs placebo, by creatinine clearance",statistically significantly improved
same,endpoint mean pain score (proportion with at least 50% reduction in pain score increased),"patients, pain score; 13-week study, 75, 150, 300 mg twice daily vs placebo, creatinine clearance greater than 60 mL/min, all doses",statistically significantly improved
same,endpoint mean pain score (proportion with at least 50% reduction in pain score increased),"patients, pain score; 100 and 200 mg three times a day",statistically significantly improved
"COc1cccc(C2(O)CCCCC2CN(C)C)c1 (racemic) [(±) Tramadol, (+/−)-trans(RR,SS)-2-[(di-methylamino)methyl]-1-(3-methoxyphenyl)cyclohexanol]",duration of the analgesic effect,[7],about 6 hours
same,Ki,δ-opioid,57700 nM
same,Ki,κ-opioid,42700 nM
same,Ki,NE reuptake; [15],785 nM
same,reduction in pain,[8],30-40%
NCC1(CC(=O)O)CCCCC1 [Gabapentin],"cellular uptake of dopamine, noradrenaline, or serotonin",[9],did not alter
same,Bioavailability,[10]; 900 mg/day given in 3 divided doses,approximately 60%
same,Bioavailability,[10]; 1200 mg/day given in 3 divided doses,~47%
same,Bioavailability,[10]; 2400 mg/day given in 3 divided doses,~34%
same,Bioavailability,[10]; 3600 mg/day given in 3 divided doses,~33%
same,Bioavailability,[10]; 4800 mg/day given in 3 divided doses,~27%
same,apparent volume of distribution,"[10]; after 150 mg intravenous administration, Mean±SD",58 ± 6 L
same,increase in AUC and Cmax with food,[10]; food effect,14%
same,bound to plasma protein,[10]; in vivo,Less than 3%
same,metabolism in humans,[10]; in vivo,not appreciably metabolized
same,"steady-state predose (Cmin) concentration in cerebrospinal fluid, of corresponding plasma concentration",[10]; patients with epilepsy,approximately 20%
same,elimination half-life,[10]; unaltered by dose or multiple dosing,5 to 7 h
same,Ki,α2δ,59 nM
CN(C)CCC=C1c2ccccc2CCc2ccccc21 [amitriptyline],patients with good or moderate response,[11]; painful diabetic neuropathy,three-quarters
same,patients with good or moderate response,[11]; postherpetic neuralgia,about two-thirds
[Mg] [magnesium],use of narcotics in postoperative patients,postoperative patients,reduced the use of narcotics
O-desmethyltramadol [(±) M1],Ki,κ-opioid,242 nM
same,Ki,NE reuptake; [15],1520 nM
same,Ki,NMDA; [13],> 16000 nM
N[C@@H](Cc1c[nH]c2ccccc12)C(=O)O [tryptophan],effect on post-operative pain or on the consumption of other analgesics,[12],no effect
